Data published in ChEMBL document CHEMBL1127453, “Benzimidazole ribonucleosides: design, synthesis, and antiviral activity of certain 2-(alkylthio)- and 2-(benzylthio)-5,6-dichloro-1-(beta-D-ribofuranosyl)benzimidazoles” (J Med Chem, 1994).

Assays:
[1] = system: Human betaherpesvirus 5; experiment: Activity against human cytomegalovirus (HCMV) using plaque reduction assay; type: functional, organism-based
[2] = system: HFF cells (Homo sapiens); experiment: Tested for the visual cytotoxicity on HFF cells at the time of human cytomegalovirus (HCMV) plaque enumeration
[3] = system: Human alphaherpesvirus 1; experiment: Tested for anti-viral activity against Herpes simplex virus type-1 using ELISA.; type: functional, organism-based
[4] = system: KB; experiment: The inhibition of KB cell growth was determined; type: functional, cell-based; details: Homo sapiens
[5] = system: Human betaherpesvirus 5; experiment: Tested for the activity against human cytomegalovirus (HCMV) using yield reduction assay; type: functional

SMILES | IC50 [1] [µM] | IC50 [2] [µM] | IC50 [3] [µM] | IC50 [4] [µM] | IC90 [5] [µM]
OC[C@@H]1O[C@@H](n2c(S)nc3cc(Cl)c(Cl)cc32)[C@H](O)[C@@H]1O | > 100 | 100 | – | – | –
CSc1nc2cc(Cl)c(Cl)cc2n1[C@@H]1O[C@@H](CO)[C@@H](O)[C@H]1O | > 100 | > 100 | – | – | –
OC[C@H]1OC(n2c(SCc3ccc(Cl)c(Cl)c3)nc3cc(Cl)c(Cl)cc32)[C@H](O)[C@@H]1O (some centres not stated) | 28 | 32 | > 30 | – | –
OC[C@H]1OC(n2c(SCc3ccc(Br)cc3)nc3cc(Cl)c(Cl)cc32)[C@H](O)[C@@H]1O (some centres not stated) | 30 | 32 | 30 | 20 | –
C#CCSc1nc2cc(Cl)c(Cl)cc2n1C1O[C@H](CO)[C@@H](O)[C@H]1O (some centres not stated) | 25 | 100 | 100 | 60 | –
O=[N+]([O-])c1cccc(CSc2nc3cc(Cl)c(Cl)cc3n2C2O[C@H](CO)[C@@H](O)[C@H]2O)c1 (some centres not stated) | 40 | 32 | 50 | 25 | –
COc1ccc(CSc2nc3cc(Cl)c(Cl)cc3n2C2O[C@H](CO)[C@@H](O)[C@H]2O)cc1 (some centres not stated) | 40 | 66 | > 100 | 41 | –
OC[C@H]1OC(n2c(SCc3cccc(C(F)(F)F)c3)nc3cc(Cl)c(Cl)cc32)[C@H](O)[C@@H]1O (some centres not stated) | 40 | 32 | 40 | 15 | –
OC[C@H]1OC(n2c(SCc3ccccc3Cl)nc3cc(Cl)c(Cl)cc32)[C@H](O)[C@@H]1O (some centres not stated) | 40 | 32 | 60 | 30 | –
CC(C)(C)c1ccc(CSc2nc3cc(Cl)c(Cl)cc3n2C2O[C@H](CO)[C@@H](O)[C@H]2O)cc1 (some centres not stated) | 20 | 32 | 20 | 50 | –
CS(=O)(=O)c1nc2cc(Cl)c(Cl)cc2n1C1O[C@H](CO)[C@@H](O)[C@H]1O (some centres not stated) | 10 | 10 | – | – | –
OC[C@H]1OC(n2c(SCc3ccc(F)cc3)nc3cc(Cl)c(Cl)cc32)[C@H](O)[C@@H]1O (some centres not stated) | 30 | 21 | > 30 | – | –
N#CCSc1nc2cc(Cl)c(Cl)cc2n1C1O[C@H](CO)[C@@H](O)[C@H]1O (some centres not stated) | 30 | 100 | > 100 | > 100 | 10
Cc1ccc(CSc2nc3cc(Cl)c(Cl)cc3n2C2O[C@H](CO)[C@@H](O)[C@H]2O)cc1 (some centres not stated) | 30 | 32 | > 30 | – | –
Cc1cccc(CSc2nc3cc(Cl)c(Cl)cc3n2C2O[C@H](CO)[C@@H](O)[C@H]2O)c1 (some centres not stated) | 40 | 32 | 38 | 30 | –
C=CCSc1nc2cc(Cl)c(Cl)cc2n1C1O[C@H](CO)[C@@H](O)[C@H]1O (some centres not stated) | > 100 | 24 | > 100 | 68 | –
O=[N+]([O-])c1ccc(CSc2nc3cc(Cl)c(Cl)cc3n2C2O[C@H](CO)[C@@H](O)[C@H]2O)cc1 (some centres not stated) | 40 | 32 | 40 | 30 | –
OC[C@H]1OC(n2c(SCc3ccc(Cl)cc3)nc3cc(Cl)c(Cl)cc32)[C@H](O)[C@@H]1O (some centres not stated) | > 100 | 100 | > 30 | – | –
OC[C@H]1OC(n2c(SCc3cccc(Cl)c3)nc3cc(Cl)c(Cl)cc32)[C@H](O)[C@@H]1O (some centres not stated) | 25 | 21 | 70 | 19 | –
Nc1nc2c(ncn2COCCO)c(=O)[nH]1 [ACYCLOVIR] | 86 | > 100 | 1.7 | > 100 | 85
OC[C@H]1O[C@@H](n2cnc3cc(Cl)c(Cl)cc32)[C@H](O)[C@@H]1O [DICHLORORIBOBENZIMIDAZOLE] | 42 | 24 | 30 | 100 | 19
O=C(O)P(=O)(O)O [FOSCARNET] | 39 | > 100 | – | – | –
Nc1nc2c(ncn2COC(CO)CO)c(=O)[nH]1 [GANCICLOVIR] | 7.4 | > 100 | – | – | 1.6
